{"source": "patent US7247309B2", "about": "“Coccidiosis vaccines” (Intervet International B.V., priority 1999, dated 2007)", "test_system": "Eimeria strains according to the invention", "test": "Tolerance/sensitivity of the strains to anticoccidial drugs (infection of chickens with the strains and administration of drug)", "assay_type": "in vivo", "procedure": "all four strains are tolerant to two commonly used anticoccidial ionophores: monensin (110 ppm) and salinomycin (60 ppm). The concentrations tested are commonly used concentrations. Specific tolerance levels were determined by infection of chickens with the strains and administration of ionophores.\nThese four strains are tolerant for 110 ppm of monensin and for 60 ppm of salinomycin, sensitive for 1 ppm of diclazuril (see FIG. 1) and the proliferative capacity of the four strains is decreased to 76000 (see Table 1b)."}
{"smiles": "CC[C@@]1([C@@H]2O[C@@H]([C@H]3O[C@@](O)(CO)[C@H](C)C[C@@H]3C)C[C@@H]2C)CC[C@H]([C@]2(C)CC[C@]3(C[C@H](O)[C@@H](C)[C@@H]([C@@H](C)[C@@H](OC)[C@H](C)C(=O)O)O3)O2)O1", "note": "[monensin]", "values": [{"measurement": "tolerance of the strains to monensin", "setting": "monensin 110 ppm, chickens infected with the strains", "value": "tolerant"}]}
{"smiles": "CC[C@@H](C(=O)[C@@H](C)[C@@H](O)[C@H](C)[C@@H]1O[C@@H]([C@@H](CC)C(=O)O)CC[C@@H]1C)[C@H]1O[C@]2(C=C[C@@H](O)[C@]3(CC[C@@](C)([C@H]4CC[C@](O)(CC)[C@H](C)O4)O3)O2)[C@H](C)C[C@@H]1C", "note": "[salinomycin]", "values": [{"measurement": "tolerance of the strains to salinomycin", "setting": "salinomycin 60 ppm, chickens infected with the strains", "value": "tolerant"}]}
{"smiles": "N#CC(c1ccc(Cl)cc1)c1c(Cl)cc(-n2ncc(=O)[nH]c2=O)cc1Cl", "note": "(stereo not drawn) [diclazuril]", "values": [{"measurement": "sensitivity of the strains to diclazuril", "setting": "diclazuril 1 ppm", "value": "fully sensitive"}]}
